Test results from patent US12448383B2, “Compounds and methods for treatment of viral infections” (priority 2022, dated 2025).

Columns and labels:
[1] = test system: SARS Coronavirus 2 recombinant with NanoLuc (SARS-CoV2-NLuc) in A549-hACE2 cells; assay: microbe, parasite or virus in culture; assay type: cell-based; conditions: A549; read-out: EC50 SARS CoV2 NanoLuc A549 384
[2] = Plasma stability; assay type: in vitro ADME; parameters: unit not given here; conditions: 37° C., 2 μM substrate
Method in brief: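 Reaction mixture was sampled at 0.05, 0.5, 1, 2, 3 and 4 hr into quench solution containing internal standard, then centrifuged and diluted with water. Remaining analyte was measured by LC-MS on a Q-Exactive using a formic acid/acetonitrile gradient, with 5 ppm mass tolerance.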

[3] = CC50 MT4 cytotoxicity (Cell-Titer Glo); assay type: cell-based; conditions: human; uninfected MT-4 cells; Table D3; read-out: CC50 MT4 384
Method in brief: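 Uninfected MT-4 and HEp-2 cells cultured 4-5 days at 37° C with 3-fold serially diluted compound (15 nM to 100,000 nM). Viability read by Cell-Titer Glo luminescence; untreated and 2 μM puromycin wells set 100% and 0%. CC50 from non-linear regression as concentration reducing viability by 50%.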

[4] = GI S9 stability - no PMSF; assay type: in vitro ADME; conditions: human, s9, 2 µM, pH 7.4
Method in brief: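 Compounds were incubated at 2 μM with PMSF-free intestinal S9 (1 mg/mL protein) in 100 mM PBS, pH 7.4, sampling at 6 time points over 120 min. Parent disappearance and formation of the nucleoside metabolite Reference Compound A were quantified by LC-MS (Q-Exactive) using analyte/internal standard peak area ratios.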

[5] = DM logD
[6] = test system: Caco-2 cells (clone C2BBe1); assay: CACO-2 permeability; assay type: in vitro ADME; parameters: unit not given here
Method in brief: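 Caco-2 monolayers grown 21 days on collagen-coated transwells and checked for integrity by TEER. Donor buffer was HBSS/HEPES/glucose pH 6.5 with 200 μM BNPP; receiver was pH 7.4 with BSA. Compounds were dosed apically or basolaterally for A-to-B and B-to-A transport, with receiver sampling at 1 and 2 h, LC-MS/MS analysis and percent recovery.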

[7] = test system: Respiratory syncytial virus recombinant with luciferase (RSV-Luc5) in Normal Human Bronchial Epithelial (NHBE) cells; assay: microbe, parasite or virus in culture; assay type: cell-based; conditions: read-out: EC50 RSVFluc-NHBE 384 V2
[8] = test system: Respiratory syncytial virus recombinant with luciferase (RSV-Luc5) in HEp-2 cells; assay: microbe, parasite or virus in culture; assay type: cell-based; conditions: human respiratory syncytial virus, HEp-2, read-out: EC50 RSVFluc-Hep2 384 V2
[9] = male, Sprague-Dawley, rat, in vivo, po
Experimental: Example E: Rat pharmacokinetics assay
Blood samples were collected into pre-chilled collection tubes containing K2EDTA and processed to plasma at 10 time points over a span of pre-dose to 24 h post-administration. Plasma samples were subject to protein precipitation with a 12.5-fold volume of methanol, vortexed and centrifuged. Supernatants were transferred and evaporated to dryness under nitrogen and reconstituted with 5% acetonitrile in water.

[10] = Stability in pH2 buffered solution; assay type: physicochemical; conditions: 50 µg/mL, pH 2
Method in brief: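 Compounds diluted from 1 mg/mL acetonitrile stock to 50 μg/mL in 50 mM phosphate buffer with 150 mM NaCl at pH2 or pH7, held at 40° C. for 24 hrs. UPLC sampling at 0, 3, 6, 9, 12 hrs, plus 24 hrs from oven-stored duplicate; reported as % area normalized of compound peak.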

Row | SMILES | EC50 [1] | STA Human Plasma 37 [2] | CC50 [3] | GIS9-HUMAN-NoPMSF T1/2 [4] | logD [5] | DM Caco2 A to B ([6]; apical to basolateral, donor pH 6.5, receiver pH 7.4) | DM Caco2 B to A ([6]; basolateral to apical) | EC50 [7] | EC50 [8] | Cmax [9] | Reference Compound A AUCinf. [9] | Reference Compound A F % ([9]; 1 mg/kg) | Stability at pH2, 0 hr ([10]; 0 h) | Stability at pH2, 3 hr ([10]; 3 h) | Stability at pH2, 6 hr ([10]; 6 h) | Stability at pH2, 9 hr ([10]; 9 h) | Stability at pH2, 12 hr ([10]; 12 h) | Stability at pH2, 24 hr ([10]; 24 h)
1 | CN1[C@@H]2CC[C@H]1C[C@@H](OC(=O)OC[C@H]1O[C@@](C#N)(c3ccc4c(N)ncnn34)[C@H](O)[C@@H]1O)C2 [Compound 156, ((2R,3S,4R,5R)-5-(4-aminopyrrolo[2,1-f][1,2,4]triazin-7-yl)-5-cyano-3,4-dihydroxytetrahydrofuran-2-yl)methyl ((1R,3r,5S)-8-methyl-8-azabicyclo[3.2.1]octan-3-yl) carbonate] | 31.4 µM | 248.79 | > 50 µM | 789 | 0.3 | 0.12 | 0.13 | 49.8 µM |  |  |  |  |  |  |  |  |  | 
2 | N#C[C@@]1(c2ccc3c(N)ncnn23)O[C@H](COC(=O)OCCl)[C@@H](O)[C@H]1O [Compound 101, ((2R,3S,4R,5R)-5-(4-aminopyrrolo[2,1-f][1,2,4]triazin-7-yl)-5-cyano-3,4-dihydroxytetrahydrofuran-2-yl)methyl (chloromethyl) carbonate] | 3.21 µM |  | > 50 µM |  | 0.9 |  |  | 1.96 µM | 1.84 µM |  |  |  |  |  |  |  |  | 
3 | CC(C)C(=O)OC[C@H]1O[C@@](C#N)(c2ccc3c(N)ncnn23)[C@H](O)[C@@H]1O [Ester Reference Compound] |  |  |  |  |  |  |  |  |  | 2100 nM | 7.57 µM·h | 63.6% | 98.5 % AN | 97.8 % AN | 97.3 % AN | 96.7 % AN | 96.1 % AN | 94.4 % AN
